Laboratory results reported in US9459246B2, “Induced intercellular communication” (Nodality, Inc., priority 2009, dated 2016).
Several values for one entry are separate records, joined by “and”; a condition that tells them apart may be missing. Equal values may be shown once.

Columns and labels:
[1] = tested on: AML cells; experiment: SCNP of basal and growth-factor modulated signaling in AML patient sample with kinase inhibitors (Example 17, Arm #1); format: cell-based, human; settings: patient #1910-017
Text: This study used peripheral blood or bone marrow samples (n=9), which had been previously ficoll separated and cryopreserved. Patient characteristics are shown Table 8. One cryovial per patient was used. Samples were thawed and centrifuged over ficoll to remove dead cells and debris.
Samples were split to perform the following: Arm #1 assessed basal and modulated signaling in the JAK/STAT, PI3K/mTor, and MEK/ERK pathways in the presence and absence of specific kinase inhibitors. Kinase inhibitors were added 1 hr before the addition of the signaling stimulus. Signaling was induced by individual addition of stem cell factor, Flt3 ligand, G-CSF, IL-3, or thrombopoietin (TPO) for a short period of time (5-15 min). Cells were then fixed, permeabilized, and stained with a cocktail of cell surface and phospho-specific antibodies to measure signaling in multiple cell types. Signaling data is calculated in each cell type using a fold-change metric comparing each condition to its basal state: example: (stimulated^+/−inhibitor)/(unstimulated). Also, cells with an apoptotic phenotype were excluded from the signaling analysis by gating.

[2] = tested on: AML cells; experiment: Cytotoxic and cytostatic impact of drugs on cultured AML patient cells (Example 17, Arm #2); format: cell-based, human; settings: patient #1910-017, 48 hours
Procedure: This study used peripheral blood or bone marrow samples (n=9), which had been previously ficoll separated and cryopreserved. […] One cryovial per patient was used. Samples were thawed and centrifuged over ficoll to remove dead cells and debris. […] After 2 days the cells were then distributed into wells containing various drugs, wherein the cells were cultured for 48 hours. The cultures were fixed, permeabilized, and stained with a cocktail of antibodies to measure complete cell death, apoptosis, S/G2 phase, M-Phase, and DNA damage. These readouts were also obstained from samples cultured separately with individual growth factors (no drugs) for 4 days.

[3] = tested on: PBMCs; experiment: SCNP of immunomodulator signaling nodes in PBMC subpopulations of 60 healthy donors (Example 16); format: cell-based, human; settings: 15 min
Procedure: Cryopreserved PBMC samples were thawed at 37° C. and resuspended in RPMI 1% FBS before staining with amine aqua viability dye (Invitrogen, Carlsbad, Calif.). Cells were resuspended in RPMI 10% FBS, aliquoted to 100,000 cells per well of 96-well plates, and rested for 2 h at 37° C. prior to 15 min 37° C. incubation with the following modulators: 1000 IU/ml IFNα (PBL, Piscataqay, N.J.); 250 ng/ml IFNγ, 50 ng/ml IL4, 50 ng/ml IL10, α-IgD 5 m/ml (BD, San Jose, Calif.); 50 ng/ml IL2, 50 ng/ml IL6, 50 ng/ml IL27, CD40L 0.5 μg/ml (R&D, Minneapolis, Minn.); R848 5 μg/ml (Invivogen, San Diego, Calif.); LPS 1 μg/ml, PMA 40 nM (Sigma Aldrich, St. Louis, Mo.). After exposure to modulators, cells were fixed with paraformaldehyde and permeabilized with 100% ice-cold methanol as previously described (5). […]
Flow cytometry data was acquired using FACS DIVA software (BD, San Jose, Calif.) on two LSRII Flow Cytometers (BD, San Jose, Calif.). All flow cytometry data were analyzed with WinList (Verity House Software, Topsham, Me.). […]
Two different metrics are utilized in this study to measure the levels of intracellular signaling proteins in either the unmodulated state or in response to modulation. […] The Equivalent Number of Reference Fluorophores (ERFs), fluorescence measurements calibrated by rainbow calibration particles on each 96-well plate, serve as a basis for all metric calculations (6, 7).

[4] = tested on: whole blood; experiment: SCNP of cytokine-induced JAK/STAT signaling in whole blood of healthy donors (Example 4); format: cell-based, human
Procedure: Method: Whole blood from 11 healthy donors (20-65 yrs, 7 males, 4 females, 8 Caucasians, 2 Hispanics, 1 East Asian) was stimulated at 37° C. in 96-well plates with a low, medium, and high dose of GM-CSF, IFN-α, IL-27 and IL-6, each added separately, as described in Example 5. For each dose, a stimulation time course was run with 6 time points between 3 and 45 minutes. […] The SCNP assay was performed using a fluorophore-labeled antibody cocktail to simultaneously measure signaling in six distinct cell populations, including: neutrophils, CD20+ B cells, CD3+CD4+T cells, CD3+CD4− T cells (CD8 enriched), CD3-CD20-lymphocytes (NK cell enriched), and CD14+ monocytes. The median fluorescent intensity of phospho (p)-STAT1(Y701), p-STAT3(Y705), and p-STAT5(Y694) were measured in each defined cell population for each experimental condition.

[5] = tested on: PBMCs; experiment: SCNP of IFN-α signaling in PBMCs from healthy donors (Examples 5 and 15); format: cell-based, human
Procedure: (§1) Methods: IFN-α-mediated signaling responses were measured by SCNP in PBMC samples from 12 healthy donors. PBMCs were processed for flow cytometry by fixation and permeabilization followed by incubation with fluorochrome-conjugated antibodies that recognize extracellular lineage markers and intracellular signaling molecules. The levels of several phospho-proteins (p-Stat1, p-Stat3, p-Stat4, p-Stat5, p-Stat6, and p-p38) were measured in multiple cell populations (CD14+ monocytes, CD20+ B cells, CD4+ CD3+ T cells, and CD4− CD3+ T cells) at 15 minutes, 1, 2 and 4 hours post IFN-α exposure as described in Example 6.
as §1, with “IFN-α-mediated” for “Methods: IFN-α-mediated”

[6] = tested on: PBMCs; experiment: SCNP signaling in LPS-treated PBMCs with inhibitors (Example 14, FIGS. 22, 23); settings: LPS plus inhibitor
[7] = tested on: PBMCs; format: cell-based, human; settings: PBMC, 24 hours
[8] = tested on: monocytes in PBMC; experiment: Flow cytometry of intracellular cytokines in SAg-modulated PBMC with inhibitors (Example 12); format: cell-based, human
[9] = tested on: PBMCs
[10] = tested on: peripheral blood mononuclear cells (PBMC); experiment: SCNP assay of SAg-modulated PBMC signaling over time, with or without cytokine pathway inhibitors (Examples 10, 11, 13); format: cell-based, human
[11] = tested on: PBMCs; experiment: SCNP intracellular signaling readouts in PBMCs treated 24 hours with modulator (SAg or LPS) plus inhibitor (Example 9, FIGS. 18-21); format: cell-based, human

Molecule: CS(=O)(=O)N1CCN(Cc2cc3nc(-c4cccc5[nH]ncc45)nc(N4CCOCC4)c3s2)CC1 [GDC-0941]
- SCF induced pAKT [1]: partial inhibition
- SCF induced pS6 [1]: partial inhibition

Molecule: Cn1c(=O)n(-c2ccc(C(C)(C)C#N)cc2)c2c3cc(-c4cnc5ccccc5c4)ccc3ncc21 [BEZ235]
- SCF induced pAKT [1]: complete inhibition
- SCF induced pS6 [1]: partial inhibition

Molecule: CC(C)C[C@H](NC(=O)[C@H](Cc1ccccc1)NC(=O)c1cnccn1)B(O)O [bortezomib]
- cell death and cytostasis [2]: induced considerable levels of cell death and cytostasis

Molecule: C[C@@H]1CCN(C(=O)CC#N)C[C@@H]1N(C)c1ncnc2[nH]ccc12 [CP-690550]
- IL-3 signaling [1]: complete inhibition
- TPO signaling [1]: partial inhibition
- high basal level of p-STAT5 signaling [1]: inhibited

Molecule: Cn1cnc2c(F)c(Nc3ccc(Br)cc3Cl)c(C(=O)NOCCO)cc21 [AZD-6244]
- SCF induced pAKT [1]: no inhibition
- SCF induced pS6 [1]: partial inhibition
- SCF-pERK [1]: complete inhibition

Molecule: IFN-α
- pStat activation across immune cell subpopulations ([3]; 1000 IU/ml): at least one pStat protein was activated in response to IFNα in all of the immune cell subpopulations
- time of peak activation of all 3 STAT proteins ([4]; all cell subsets): 10 min
- peak response for activation of p-Stat4, p-Stat6, and p-p38 ([5]; majority of cell types tested): 1 h
- peak response for activation of p-Stat1, p-Stat3, and p-Stat5 ([5]; most of the cell types): 15 min

Molecule: Nc1ccn([C@@H]2O[C@H](CO)[C@@H](O)[C@@H]2O)c(=O)n1 [AraC]
- drug induced apoptosis of myeloid cells [2]: resisted apoptosis

Molecule: IL-6: cytokine used as modulator
- time of peak p-STAT1 and p-STAT5 ([4]; CD4+ T cells and monocytes): 10 to 15 min
- time of peak p-STAT3 levels ([4]; CD4+ T cells and monocytes): 3 min

Molecule: C[C@@H]1CCN(C(=O)CC#N)C[C@@H]1N(C)c1ncnc2[nH]ccc12 [Tofacitinib]
- p-STAT1 and p-STAT3 induction in lymphocytes ([6]; 2 hours): completed abrogated
- p-STAT3 in lymphocytes ([6]; later time points): partially inhibited
- B cell IL-6 production ([7]; SAg plus inhibitor): blocked
- T cell cytokine production (IL-2 and TNF by CD4+ cells) ([7]; SAg plus inhibitor): blocked
- IL-6 production by monocytes ([7]; inhibitor added): induced
- TNFα production ([7]; monocytes, LPS plus inhibitor): blocked
- IL-6 in monocytes at other time points [8]: induced IL-6 at the 2 hour and 24 hour time points
- frequency of monocytes expressing TNFα [8]: 46%
- monocytes expressing IL-6 (IL-6+) [8]: 44%
- inhibition [9]: 102% and 79%
- PI3K pathway activation in lymphocytes [10]: blocked
- STAT induction evoked by SAg modulation [10]: completely abrogated
- overall inhibition of SAg-evoked signaling [10]: broad and potent inhibition of the JAK/STAT pathway and down-stream signaling
- p-STAT5 and PI3K pathway signaling in CD4+ T cells [10]: this inhibition pattern extended to CD4+ T cells
- p-STAT5 and PI3K pathway signaling in CD4− T cells [10]: inhibited
- p-STAT levels in CD4− T cells [10]: restored p-STAT levels to the unmodulated condition
- phosphorylation of STAT1 and STAT5 [10]: weakly reduced
- STAT signaling / STAT phosphorylation ([11]; LPS modulation, FIG. 21): inhibited
- all measured signaling ([11]; SAg modulation, FIG. 19): inhibited all signaling except for monocyte p-STAT6
- lymphocyte signaling ([11]; SAg modulation, FIG. 20): inhibited

B1: IL-27: cytokine used as modulator (protein, UniProt Q8NEV9 29-243; Q14213 21-229, looked up)
Interleukin-27 subunit alpha: FPRPPGRPQLSLQELRREFTVSLHLARKLLSEVRGQAHRFAESHLPGVNLYLLPLGEQLPDVSLTFQAWRRLSDPERLCFISTTLQPFHALLGGLGTQGRWTNMERMQLWAMRLDLRDLQRHLRFQVLAAGFNLPEEEEEEEEEEEEERKGLLPGALGSALQGPAQVSWPQLLSTYRLLHSLELVLSRAVRELLLLSKAGHSVWPLGFPTLSPQP
Interleukin-27 subunit beta: RKGPPAALTLPRVQCRASRYPIAVDCSWTLPPAPNSTSPVSFIATYRLGMAARGHSWPCLQQTPTSTSCTITDVQLFSMAPYVLNVTAVHPWGSSSSFVPFITEHIIKPDPPEGVRLSPLAERQLQVQWEPPGSWPFPEIFSLKYWIRYKRQGAARFHRVGPIEATSFILRAVRPRARYYVQVAAQDLTDYGELSDWSLPATATMSLGK
- time of peak activation of p-STAT1 and p-STAT3 ([4]; T cell subsets, B cells, and monocytes): 30 min

B2: IFNγ: cytokine used as modulator (protein, UniProt P01579 24-161, looked up)
Interferon gamma: QDPYVKEAENLKKYFNAGHSDVADNGTLFLGILKNWKEESDRKIMQSQIVSFYFKLFKNFKDDQSIQKSVETIKEDMNVKFFNSNKKKRDDFEKLTNYSVTDLNVQRKAIHELIQVMAELSPAAKTGKRKRSQMLFRG
- pStat1 level by cell type ([3]; 250 ng/ml): produced the highest level of pStat1 in monocytes, lower levels in B cells, and a much weaker pStat1 response in T cells
